Data from patent publication US11214803B2, “Modulators of YAP1 expression” (Ionis Pharmaceuticals, Inc., priority 2019, dated 2022).
Where “and” joins values, the source holds several entries; their conditions need not be identical. Equal entries are not always repeated. Strand notation (5' to 3'): a small letter for the sugar, then the base; units joined by * are phosphorothioate-linked, units joined directly phosphodiester-linked; [ ] holds rarer units or linkages, { } end groups; capitals alone tell only the bases. k = constrained ethyl (cEt); [5mC] = 5-methylcytosine; d = 2'-deoxy (DNA)

What was measured:
Yap1 mRNA [1] = assay: Dose-dependent inhibition of human Yap1 in SNU-449 cells (Example 9, RTS36584); assay type: cell-based; conditions: free uptake; for % UTC (Yap1 mRNA): approximately 48 hours; for IC50: linear regression on a log/linear plot
Summary of the method: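 SNU-449 cells (10,000/well) took up modified oligonucleotides by free uptake at a range of doses for about 48 h. Yap1 mRNA was quantified with primer-probe set RTS36584, normalised to RIBOGREEN total RNA and expressed as % untreated control; IC50 from linear regression on log/linear plot.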

Yap1 mRNA [2] = assay: Inhibition of human Yap1 mRNA in epidermoid carcinoma A-431 xenograft tumors (Example 27); assay type: in vivo; conditions: A-431 xenografts in NCr-Foxn1nu mice, 6-8 hours post final dose, relative to PBS
Method: An epidermoid carcinoma A-431 xenograft tumor model was used to evaluate activity of modified oligonucleotides targeted to human Yap1. Five million A-431 cells in 30% matrigel were implanted subcutaneously into the flanks of female NCr-Foxn1nu mice (from Taconic) at 4-6 weeks of age. When tumors reached an average volume of 40 mm^3, approximately two weeks post-implantation, groups of four mice each were administered at either 25 mg/kg or 50 mg/kg daily with modified oligonucleotides for […] (5 doses). Tumors were collected 6-8 hours post final dose and tested for Yap1 mRNA knockdown by RT-qPCR. Yap1 mRNA levels were measured as previously described using the Human Yap1 primer-probe set RTS4814. Yap1 mRNA levels were normalized to actin-beta content, as measured by primer probe set RTS5002. Results are presented in the tables below as percent control of the amount of Yap1 mRNA relative to PBS treated animals (% control).

[3] = cynomolgus monkey, in vivo, sc, 35 mg/kg
Yap1 mRNA [4] = assay: Inhibition of human Yap1 mRNA in squamous cell carcinoma CAL27 xenograft tumors (Example 28); assay type: in vivo; conditions: CAL27 xenografts in NCr-Foxn1nu mice, relative to PBS treated
Method: A squamous cell carcinoma CAL27 xenograft tumor model was used to evaluate activity of modified oligonucleotides targeted to human Yap1. Five million CAL27 cells in 30% matrigel were implanted subcutaneously into the flanks of female CrTac:NCr-Foxn1nu mice (from Taconic) at 4-6 weeks of age. Groups of four mice each were administered with either 15 mg/kg or 30 mg/kg of modified oligonucleotides daily for five days after tumor size had reached ˜100 mm^3 (about 3 weeks post implantation). Tumors were collected and tested for Yap1 mRNA knockdown by RT-qPCR. Yap1 mRNA levels were measured as previously described using the Human Yap1 primer-probe set RTS4814. Yap1 mRNA levels were normalized to actin-beta content, as measured by primer probe set RTS5002. Results are presented in the tables below as percent control of the amount of Yap1 mRNA relative to PBS treated […].

[5] = Cynomolgus monkey tolerability, pro-inflammatory proteins analysis, Complement C3 and CRP (Example 34); assay type: in vivo; conditions: cynomolgus monkeys, 35 mg/kg subcutaneously; for CRP: day 44
Method: To evaluate any inflammatory effect of Ionis oligonucleotides in cynomolgus monkeys, blood samples were taken for analysis. The monkeys were fasted overnight prior to blood collection. On day 42 (pre-dose and 24 hours post-dose), approximately 0.8 mL of blood was collected from each animal and put into tubes without anticoagulant for serum separation. […] Complement C3 were measured using a Toshiba 120 FR NEO chemistry analyzer (Toshiba Co., Japan). […] Another marker of inflammation, C-Reactive Protein (CRP) was tested together with the clinical chemistry parameters tested for liver function above.

Yap1 mRNA [6] = assay: Dose-dependent inhibition of human Yap1 in A-431 cells (Example 24, 11,000 cells per well, RTS36584, normalized to GAPDH); assay type: cell-based; conditions: free uptake, 48 hours; for Yap1 mRNA, % UTC: RTS36584, normalized to GAPDH; for IC50: linear regression on a log/linear plot
Method: Modified oligonucleotides described in the studies above were tested at various doses in A-431 cells. Cultured A-431 cells at a density of 11,000 cells per well were treated using free uptake with modified oligonucleotides diluted to concentrations described in the tables below. After approximately 48 hours, Yap1 mRNA levels were measured as previously described using the Human Yap1 primer-probe set RTS36584. Yap1 mRNA levels were normalized to GAPDH content, as measured by primer probe set RTS104 (forward sequence […], designated herein as SEQ ID NO.: 17; reverse sequence […], designated herein as SEQ ID NO.: 18; probe sequence […], designated herein as SEQ ID NO.: 19). Results are presented in the tables below as percent control of the amount of Yap1 mRNA relative to untreated control cells (% UTC). IC50s were calculated using a linear regression on a log/linear plot of the data in excel.

[7] = Cynomolgus monkey tolerability, coagulation (Example 34); assay type: in vivo; conditions: cynomolgus monkeys, 35 mg/kg subcutaneously, day 44
Method: To evaluate effect of Ionis modified oligonucleotides on coagulation in cynomolgus monkeys, blood samples of approximately 0.9 mL were collected from each of the available study animals on day 44. The samples were collected in tubes containing 3.2% sodium citrate. Coagulation parameters tested include Activated partial thromboplastin time (APTT), prothrombin time (PT) and Figrinogen (FIB).

[8] = Cynomolgus monkey tolerability, urine analysis (Example 34); conditions: cynomolgus monkeys, 35 mg/kg subcutaneously, day 44
Method: Prior to the study, the monkeys were kept in quarantine during which the animals were observed daily for general health. The monkeys were 2-4 years old and weighed 2-4 kg. Eleven groups of 4 randomly assigned male cynomolgus monkeys each were injected subcutaneously with Ionis oligonucleotide or saline in a clock-wise rotation between four different sites on the back. Following loading doses on days 1, 3, 5 and 7, the monkeys were dosed once per week (on days 14, 21, 28, 35, and 42) with 35 mg/kg of Ionis oligonucleotide.
Food was removed overnight the day before fresh urine collection, but water was supplied. Fresh urine samples for urinalysis and urine chemistry were collected from all animals using a clean cage pan on wet ice (first in the morning) on day 44. Urinalysis/Urine Chemistry parameters creatinine (UCRE), microprotein (UTP), urine microalbumin (UALB), and protein/creatinine (P/C) ratio were measured using a Toshiba 120FR automated chemistry analyzer (Toshiba Co., Japan).

Row | Substance | % UTC (Yap1 mRNA) (Yap1 mRNA [1]; 125.0 nM) | IC50 (Yap1 mRNA [1]) | Yap1 mRNA in tumors, % control (Yap1 mRNA [2]; 25 mpk daily (5 doses)) | Yap1 mRNA in tumors, % control (Yap1 mRNA [2]; 50 mpk daily (5 doses)) | A/G ratio [3] | % UTC (Yap1 mRNA) (Yap1 mRNA [1]; 31.3 nM) | % UTC (Yap1 mRNA) (Yap1 mRNA [1]; 500.0 nM) | % UTC (Yap1 mRNA) (Yap1 mRNA [1]; 2000.00 nM) | Yap1 mRNA in tumors, % UTC (Yap1 mRNA [4]; 15 mg/kg daily for five days) | Yap1 mRNA in tumors, % UTC (Yap1 mRNA [4]; 30 mg/kg daily for five days) | Complement C3 ([5]; Day 42 (pre-dose)) | Complement C3 ([5]; day 42 (24 hr post-dose)) | CRP [5] | Yap1 mRNA, % UTC (Yap1 mRNA [6]; 0.002 μM) | Yap1 mRNA, % UTC (Yap1 mRNA [6]; 0.008 μM) | Yap1 mRNA, % UTC (Yap1 mRNA [6]; 0.04 μM) | Yap1 mRNA, % UTC (Yap1 mRNA [6]; 0.2 μM) | Yap1 mRNA, % UTC (Yap1 mRNA [6]; 1 μM) | APTT [7] | FIB [7] | other results
1 | 715487 (kA*kT*kT*dA*d[5mC]*dT*dT*d[5mC]*dA*dT*dA*dG*d[5mC]*kT*kT*kA) [compound 715487] | 47 % UTC and 44 % UTC and 56 % UTC and 53 % UTC and 73 % UTC and 70 % UTC and 62 % UTC and 48 % UTC | 400 nM and 300 nM and 200 nM | 61 % control | 57 % control | – | – | – | – | – | – | – | – | – | – | – | – | – | – | – | – | –
2 | 958499 (ATTAGAGTATGTGGCA; 3-10-3 cEt gapmer, further chemistry not given here) [compound 958499] | 47 % UTC | 200 nM | 49 % control | 29 % control | 1.3 | 93 % UTC | 19 % UTC | 7 % UTC | 68 % UTC | 53 % UTC | 112 mg/dL | 89 mg/dL | 9.9 mg/L | 1 % UTC | 3 % UTC | 28 % UTC | 91 % UTC | 117 % UTC | 18 s | 275 mg/dL | IC50 (Yap1 mRNA [6]): 30 nM; PT [7]: 9 s; UALB [8]: 0.1 mg/dL; UCRE [8]: 60 mg/dL; UTP [8]: 16 mg/dL
3 | 1076453 (GTAATATTGCAATCTG; 3-10-3 cEt gapmer, further chemistry not given here) [compound 1076453] | 29 % UTC | 100 nM | 55 % control | 25 % control | 1.3 | 67 % UTC | 8 % UTC | 1 % UTC | 69 % UTC | 46 % UTC | 101 mg/dL | 88 mg/dL | 1.5 mg/L | 0 % UTC | 1 % UTC | 23 % UTC | 74 % UTC | 89 % UTC | 20 s | 234 mg/dL | PT [7]: 9 s; UALB [8]: 0.1 mg/dL; UCRE [8]: 50 mg/dL; UTP [8]: 14 mg/dL
4 | 1198439 (AGTGTATGTCAGAAGA; sugar, 5-methylcytosine, phosphorothioate modifications, further chemistry not given here) [compound 1198439] | 21 % UTC | < 30 nM | 37 % control | 19 % control | 1.4 | 44 % UTC | 5 % UTC | 2 % UTC | 66 % UTC | 38 % UTC | 99 mg/dL | 94 mg/dL | 2.9 mg/L | 0 % UTC | 1 % UTC | 11 % UTC | 65 % UTC | 93 % UTC | 19 s | 246 mg/dL | IC50 (Yap1 mRNA [6]): 20 nM; PT [7]: 10 s; UALB [8]: 0.1 mg/dL; UCRE [8]: 68 mg/dL; UTP [8]: 15 mg/dL
5 | 1198440 (AAGTGTATGTCAGAAG; cEt, 2'-MOE, 5-methylcytosine, phosphorothioate modifications, further chemistry not given here) [compound 1198440] | 23 % UTC | < 30 nM | 32 % control | 21 % control | 1.4 | 55 % UTC | 6 % UTC | 2 % UTC | 67 % UTC | 41 % UTC | 95 mg/dL | 88 mg/dL | 4.8 mg/L | 0 % UTC | 1 % UTC | 14 % UTC | 69 % UTC | 96 % UTC | 20 s | 260 mg/dL | IC50 (Yap1 mRNA [6]): 20 nM; PT [7]: 10 s; UALB [8]: 0.2 mg/dL; UCRE [8]: 53 mg/dL; UTP [8]: 13 mg/dL
